This is an account of results in US10385400B2, “Methods and kits for monitoring response to radiation therapies in cancer” (RNA Diagnostics Inc., priority 2012, dated 2019).

Like-named read-outs stand apart in the source and are kept apart here.

Data set [1] relates to stage IIB to III locally advanced breast cancer. As to conditions: cited from earlier work.
The subject of data set [2] is locally advanced breast cancer. As to conditions: paclitaxel 175 mg/m^2 and 5FU with 50.4 Gy, then 3 cycles of FEC, then surgery; 23 patients; cited from earlier work.
Data set [3] has as its system A2780 cells. Description: A2780 cells treated with increasing doses of Epirubicin with and without 10 Gy radiation (RIN, RDI, RNA concentration). Format: cell-based. As to conditions: with 10 Gy radiation, 96 h post-radiation. How it is done:
A2780 cells were treated with increasing doses of Epirubicin with and without 10 Gy radiation.A2780 cells were plated into 6 cm plates in 4 ml of RPMI culture medium. The plates were placed in the incubator and the cells were allowed to adhere overnight. The next day, the medium was removed from all plates and new media containing the appropriate epirubicin concentration (1 pM, 5 pM, 20 nM, 50 nM, and 100 nM) was added to the plates. Cells were pre-treated for 24 h with epirubicin prior to receiving radiation treatment. The following day (24 h post epirubicin drug-treatment), the cells were given 10 Gy of x-ray radiation treatment (300 kV, 9 mA) in approximately 4.3 min of x-ray exposure using a RS320 Irradiation System (Gulmay Medical) The cells were returned to the cell culture incubator, and RNA was extracted from the cells 96 h post-radiation treatment (which corresponds to 120 h post-epirubicin treatment).

Data set [4] deals with MCF-7 cells. The data set can be described thus: MCF-7 cells treated with increasing doses of Epirubicin with and without 10 Gy radiation (RIN, RDI, RNA concentration). Format: cell-based. How it is done:
FIG. 9: Graphs of MCF-7 cells were treated with increasing doses of Epirubicin with and without 10 Gy radiation. A) RIN value vs. Epirubicin; B) RDI value vs. Epirubicin; C) RNA concentration vs. Epirubicin Dose.

Data set [5] concerns SKBR3 breast tumour cells. The data set can be described thus: RNA concentration and RIN in SKBR3 cells after radiation with or without docetaxel. Format: cell-based. As for the experimental part: It was then examined whether similar observations could be observed in vitro for specific breast tumour cell lines. […] If cells were pre-treated with 0.1 μM docetaxel prior to 10 Gray radiation, a 5-fold reduction in cellular RNA concentration was observed (19% of untreated cells). RNA concentration decreases 2 fold (or more) in BT-20, A2780 and MB-468 cells with radiation only. […] Concurrent docetaxel treatment with radiation therapy dramatically reduces cellular RNA content, consistent with the observed findings for patients with locally advanced breast cancer treated with FEC-D chemotherapy followed by radiation treatment. Similar findings were observed when the effects of the above treatments on RIN values were examined in SKBR3 (HER2+, ER−) cells (FIG. 6B).

Data set [6] deals with anthracycline-resistant metastatic breast cancer. As to conditions: cited from earlier work.
Data set [7] concerns breast cancer, T1c-T3 N0-N1 disease. As to conditions: preoperative AC alone versus AC with addition of docetaxel; cited from earlier work.
Data set [8] deals with A2780 cells. Description: A2780 cells treated with 5 nM Docetaxel, 10 Gy radiation or both for 72 or 96 hours (RIN, RDI). Format: cell-based. As to conditions: n=3. As for the experimental part: In another experiment, A2780 cells were treated with 5 nM Docetaxel, 10 Gy Radiation and 10 Gy Radiation+5 nM Docetaxel for 72 hours or 96 hours.
The test system of data set [9] is A2780 ovarian tumour cells. Description: RNA concentration and RIN in A2780 cells after radiation with or without docetaxel. Format: cell-based. How it is done: Experiments were conducted to assess whether radiation with or without docetaxel treatment could induce changes in cellular RNA concentration and/or RIN values in A2780 ovarian tumour cells. […] In contrast under the tested conditions, radiation doses up to 5 Gray had no effect on cellular RNA integrity, as no changes in RIN values were observed compared to samples prior to radiation treatment (FIG. 5B). If cells were pre-incubated for 24 hours with 0.1 μM docetaxel prior to 10 Gray radiation treatment, the cellular RIN value decreased to 75% of pre-treatment values. There were additional decreases in RIN when radiation and chemotherapy were used together concurrently. […] Moreover, the combination of both radiation and docetaxel treatment induces even stronger reductions in both cellular RNA content and RNA integrity. These observations are consistent with those described above for tumours of patients with locally advanced breast cancer, in particular for the combined therapy post-treatment, where RNA concentration fell dramatically in response to FEC-D chemotherapy with concurrent radiation therapy and where differences between between responding patients (pCR) and non-reponding patients (no pCR) appeared to be observed post-treatment.

Data set [10] relates to MCF-7 breast tumour cells. Description: RNA concentration and RIN in MCF-7 cells after radiation with or without docetaxel. Format: cell-based. How it is done: The effects of the above treatments on MCF-7 (ER+, HER2−) cells (FIGS. 7A and 7B) were examined, findings were similar to those of SKBR3 cells, with 4% and 73% reductions in RNA levels observed for the 10 Gray and 10 Gray/0.1 μM docetaxel treatments, respectively. […] Moreover, only a 4% reduction in cellular RIN values were observed when cells were pre-treated with 0.1 μM docetaxel prior to the 10 Gray radiation.

Data set [11] concerns breast cancer, T3, T4 or TxN2 disease. As to conditions: cited from earlier work.
Data set [12] relates to metastatic breast cancer. As to conditions: cited from earlier work.
Setting [13] is: paclitaxel 30 mg/m^2 twice weekly with radiation to 45 Gy, then surgery.
[14] abbreviates: pre-treated with 0.1 μM docetaxel prior to 10 Gray radiation.
Where [15] appears, read: after 4 cycles of CVAP, 4 cycles of docetaxel versus 4 more cycles of CVAP, intention-to-treat.
[16] abbreviates: 35 mg/m^2 weekly for 3 of every 4 weeks.

As to `CC(=O)O[C@H]1C(=O)[C@@]2(C)[C@H]([C@H](OC(=O)c3ccccc3)[C@]3(O)C[C@H](OC(=O)[C@H](O)[C@@H](NC(=O)c4ccccc4)c4ccccc4)C(C)=C1C3(C)C)[C@]1(OC(C)=O)CO[C@@H]1C[C@@H]2O` [paclitaxel], in [1] (setting [13]), the “patients achieving a pCR” value was “Sixteen” and the “patients achieving a pPR” value was 18%. Further, in data set [1] (postoperative phase), the “grade 4 leucopenia” value is recorded as 10%. The “grade 4 toxicities” value in data set [1] (preoperative chemoradiation phase, paclitaxel 30 mg/m^2 twice weekly with radiation to 45 Gy) is given as “No grade 4 toxicities were observed”. In [2], the “clinical CR” value is recorded as 82.6%, the “overall 2-year survival” value was 80.7% and the pCR is reported as 52.2%.
For `COc1cccc2c1C(=O)c1c(O)c3c(c(O)c1C2=O)C[C@@](O)(C(=O)CO)C[C@@H]3O[C@H]1C[C@H](N)[C@@H](O)[C@H](C)O1` [Epirubicin], the “RIN value vs Epirubicin dose” value in data set [3] (low doses of Epirubicin) and in data set [4] (combined with 10 Gy radiation) was “loss in RIN value” throughout. Also, the “RDI value vs Epirubicin dose” value in data set [3] (low drug doses) is on record as “RDI values increase”; in [4] (with radiation, up to 100 uM Epirubicin), “increase in RDI value”. The entries for the “RNA concentration vs Epirubicin dose” value in data set [3] (low drug doses) and in data set [4] (increasing doses of Epirubicin) were “increased loss in RNA concentration” and “loss in RNA concentration”, respectively.
As for `CC(=O)O[C@@]12CO[C@@H]1C[C@H](O)[C@@]1(C)C(=O)[C@H](O)C3=C(C)[C@@H](OC(=O)[C@H](O)[C@@H](NC(=O)OC(C)(C)C)c4ccccc4)C[C@@](O)([C@@H](OC(=O)c4ccccc4)[C@H]21)C3(C)C` [docetaxel], the “effect of concurrent docetaxel on effects of radiation on RNA content and RNA integrity” value in [5] (0.1 μM docetaxel, 10 Gray) is given as “strongly augmented”. Moreover, in data set [5] (setting [14]), the “cellular RNA concentration, % of untreated cells” value was 19% and the “reduction in cellular RNA concentration” value was 5 fold. Further, the “reduction in cellular RIN values” in data set [5] (radiation, cells pre-treated with docetaxel) is reported as 9%. Besides, the response rates entry in data set [6] is reported as “up to 50%”. For the same compound, in [7], the “clinical complete response (cCR)” value is 63.6%, the pCR is recorded as 26.1% and the “proportion of patients with negative nodes” value is given as 58.2%. The “mean RDI value” in data set [8] (10 Gy radiation + 5 nM Docetaxel compared with Docetaxel alone, 96 hr) is recorded as “increase in RDI value”. Besides, in [8] (10 Gy radiation + 5 nM Docetaxel, 72 hr), the “mean RIN value” was “increased loss in RIN value”. In addition, in [9] (0.1 μM docetaxel, 10 Gray), the “effect of concurrent docetaxel on radiation-induced reduction of RNA content and integrity” value is given as “strongly augmented”. In data set [9] (pre-incubated 24 hours with 0.1 μM docetaxel prior to 10 Gray radiation), the “cellular RIN value, % of pre-treatment values” is listed as 75%. Moreover, in [9] (pre-incubation with 0.1 μM docetaxel, 10 Gray radiation, versus radiation alone), the “additional reduction of cellular RNA concentration” value is listed as 6.5 fold. Moreover, the “effect of concurrent docetaxel on effect of radiation on RNA content and integrity” value in [10] (0.1 μM docetaxel, 10 Gray) is “only slightly augmented”. In addition, the “reduction in RNA levels” value in data set [10] (10 Gray/0.1 μM docetaxel) was 73%. Further, the “reduction in cellular RIN values” in [10] (setting [14]) turned out to be 4%. Also, in data set [11] (38 months median follow-up), the DFS is recorded as 90% and the OS is on record as 97%. In data set [11] (setting [15]), the cCR was 94% and the pCR is 31%. Also, in [12] (setting [16]), the “overall survival (OS)” value was 18.6 months and the progression-free survival is recorded as 5.5 months. Besides, in data set [12] (100 mg/m^2 every 3 weeks), the “overall survival (OS)” value was 18.3 months and the progression-free survival is reported as 5.7 months. Also, in [12] (Q 3-week arm), the overall serious toxicity is given as 88.1%. Besides, the overall serious toxicity in [12] (weekly arm) is given as 55.9%.
